Test system: K-562
Assay: cell viability (% survival relative to DMSO control, bortezomib = 0%); higher = less cytotoxic
Conditions: 10000 nM; 72 h
Outline: (§1)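 Percent survival figures are means of duplicate wells. They were obtained by CellTiter-Glo luminescence after 10 AML and 5 CML cell lines spent 72 h at 37 °C with 5% CO2 in 384-well plates with compounds at 1, 10, 100, 1000 or 10000 nM. Vehicle was set to 100% and a 10 µM positive control to 0%.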

Going from O=C(C(=O)c1ccc(Br)cc1)c1ccc(Br)cc1 [4,4'-Dibromobenzil] to NS(=O)(=O)c1ccc(NC(=O)Cc2ccccc2)cc1 [4-(2-Phenylacetamido)Benzenesulfonamide], the cell viability falls from 112% to 97.2%.

Compared with NCc1ccc(S(N)(=O)=O)cc1 [4-Homosulfanilamide], NCc1ccc(-c2cccnc2)s1 [(5-Pyrid-3-YLTHIEN-2-YL)METHYLAMINE] is lower in cell viability: 102% for the first, 94% for the second.

Going from Oc1ncc(F)c(O)n1 [5-fluorouracil] to CC(=O)N[C@@H](CS)C(=O)O [Acetylcysteine], the cell viability rises from 68.9% to 103%.

Going from CCCCC/C=C\C/C=C\C/C=C\C/C=C\CCCC(=O)C(F)(F)F [Arachidonyl trifluoromethyl ketone] to O=[As]O[As]=O (stereo not given) [Arsenic trioxide], the cell viability falls from 90.6% to 49.5%.

Test system: ML-2
Assay: as above
Conditions: 1 nM; 72 h
Outline: as §1

First: CC(=O)N1CCN(c2ccc(OC[C@@H]3CO[C@@](Cn4ccnc4)(c4ccc(Cl)cc4Cl)O3)cc2)CC1 (racemic) [Ketoconazole]
Second: CCC(CC#N)OC(=O)N[C@@H](C)c1cccc(NC(=O)Nc2ccc(-c3cnco3)c(OC)c2)c1 (stereo in doubt) [AVN-944]
The cell viability of the first is lower: 97.8% for the first, 99.6% for the second.

First: OC[C@H]1OC(O)C[C@@H](O)[C@@H]1O (stereo not given in full) [2-deoxyglucose]
Second: CC(=O)N[C@@H](CS)C(=O)O [Acetylcysteine]
The cell viability of the first is lower: 101% for the first, 104% for the second.

Going from O=C(C(=O)c1ccc(Br)cc1)c1ccc(Br)cc1 [4,4'-Dibromobenzil] to NS(=O)(=O)c1ccc(NC(=O)Cc2ccccc2)cc1 [4-(2-Phenylacetamido)Benzenesulfonamide], the cell viability rises from 91.7% to 98.7%.

First: NCc1ccc(S(N)(=O)=O)cc1 [4-Homosulfanilamide]
Second: NCc1ccc(-c2cccnc2)s1 [(5-Pyrid-3-YLTHIEN-2-YL)METHYLAMINE]
The cell viability of the first is lower: 90.9% for the first, 104% for the second.

First: Oc1ncc(F)c(O)n1 [5-fluorouracil]
Second: CCCCC/C=C\C/C=C\C/C=C\C/C=C\CCCC(=O)C(F)(F)F [Arachidonyl trifluoromethyl ketone]
The cell viability of the first is lower: 93% for the first, 98.9% for the second.

For O=[As]O[As]=O (stereo not given) [Arsenic trioxide], the cell viability was 109%.

Same assay, conditions: 10 nM; 72 h

First: CC(=O)N1CCN(c2ccc(OC[C@@H]3CO[C@@](Cn4ccnc4)(c4ccc(Cl)cc4Cl)O3)cc2)CC1 (racemic) [Ketoconazole]
Second: CCC(CC#N)OC(=O)N[C@@H](C)c1cccc(NC(=O)Nc2ccc(-c3cnco3)c(OC)c2)c1 (stereo in doubt) [AVN-944]
The cell viability of the first is higher: 113% for the first, 111% for the second.

Compared with OC[C@H]1OC(O)C[C@@H](O)[C@@H]1O (stereo not given in full) [2-deoxyglucose], CC(=O)N[C@@H](CS)C(=O)O [Acetylcysteine] is lower in cell viability: 110% for the first, 91.3% for the second.

First: O=C(C(=O)c1ccc(Br)cc1)c1ccc(Br)cc1 [4,4'-Dibromobenzil]
Second: NS(=O)(=O)c1ccc(NC(=O)Cc2ccccc2)cc1 [4-(2-Phenylacetamido)Benzenesulfonamide]
The cell viability of the first is lower: 99.9% for the first, 102% for the second.

Going from NCc1ccc(S(N)(=O)=O)cc1 [4-Homosulfanilamide] to NCc1ccc(-c2cccnc2)s1 [(5-Pyrid-3-YLTHIEN-2-YL)METHYLAMINE], the cell viability rises from 92.3% to 108%.

Going from Oc1ncc(F)c(O)n1 [5-fluorouracil] to CCCCC/C=C\C/C=C\C/C=C\C/C=C\CCCC(=O)C(F)(F)F [Arachidonyl trifluoromethyl ketone], the cell viability falls from 99.4% to 98.3%.

O=[As]O[As]=O (stereo not given) [Arsenic trioxide] showed a cell viability of 96.4%.

Same assay, conditions: 100 nM; 72 h

Going from CC(=O)N1CCN(c2ccc(OC[C@@H]3CO[C@@](Cn4ccnc4)(c4ccc(Cl)cc4Cl)O3)cc2)CC1 (racemic) [Ketoconazole] to CCC(CC#N)OC(=O)N[C@@H](C)c1cccc(NC(=O)Nc2ccc(-c3cnco3)c(OC)c2)c1 (stereo in doubt) [AVN-944], the cell viability falls from 90.8% to 29.5%.

First: OC[C@H]1OC(O)C[C@@H](O)[C@@H]1O (stereo not given in full) [2-deoxyglucose]
Second: CC(=O)N[C@@H](CS)C(=O)O [Acetylcysteine]
The cell viability of the first is higher: 102% for the first, 97.3% for the second.

Compared with O=C(C(=O)c1ccc(Br)cc1)c1ccc(Br)cc1 [4,4'-Dibromobenzil], NS(=O)(=O)c1ccc(NC(=O)Cc2ccccc2)cc1 [4-(2-Phenylacetamido)Benzenesulfonamide] is higher in cell viability: 92.3% for the first, 95.6% for the second.

Going from NCc1ccc(S(N)(=O)=O)cc1 [4-Homosulfanilamide] to NCc1ccc(-c2cccnc2)s1 [(5-Pyrid-3-YLTHIEN-2-YL)METHYLAMINE], the cell viability rises from 94.7% to 97.6%.

Compared with Oc1ncc(F)c(O)n1 [5-fluorouracil], CCCCC/C=C\C/C=C\C/C=C\C/C=C\CCCC(=O)C(F)(F)F [Arachidonyl trifluoromethyl ketone] is higher in cell viability: 102% for the first, 111% for the second.

In the case of O=[As]O[As]=O (stereo not given) [Arsenic trioxide], the cell viability is reported as 103%.

Same assay, conditions: 1000 nM; 72 h

Compared with CC(=O)N1CCN(c2ccc(OC[C@@H]3CO[C@@](Cn4ccnc4)(c4ccc(Cl)cc4Cl)O3)cc2)CC1 (racemic) [Ketoconazole], CCC(CC#N)OC(=O)N[C@@H](C)c1cccc(NC(=O)Nc2ccc(-c3cnco3)c(OC)c2)c1 (stereo in doubt) [AVN-944] is lower in cell viability: 101% for the first, 1.17% for the second.

Compared with OC[C@H]1OC(O)C[C@@H](O)[C@@H]1O (stereo not given in full) [2-deoxyglucose], CC(=O)N[C@@H](CS)C(=O)O [Acetylcysteine] is lower in cell viability: 89.4% for the first, 89.2% for the second.

Going from O=C(C(=O)c1ccc(Br)cc1)c1ccc(Br)cc1 [4,4'-Dibromobenzil] to NS(=O)(=O)c1ccc(NC(=O)Cc2ccccc2)cc1 [4-(2-Phenylacetamido)Benzenesulfonamide], the cell viability rises from 100% to 108%.

Going from NCc1ccc(S(N)(=O)=O)cc1 [4-Homosulfanilamide] to NCc1ccc(-c2cccnc2)s1 [(5-Pyrid-3-YLTHIEN-2-YL)METHYLAMINE], the cell viability rises from 91.8% to 113%.

Compared with Oc1ncc(F)c(O)n1 [5-fluorouracil], CCCCC/C=C\C/C=C\C/C=C\C/C=C\CCCC(=O)C(F)(F)F [Arachidonyl trifluoromethyl ketone] is higher in cell viability: 78.9% for the first, 99.2% for the second.

O=[As]O[As]=O (stereo not given) [Arsenic trioxide] showed a cell viability of 94.9%.

Same assay, conditions: 10000 nM; 72 h

Going from CC(=O)N1CCN(c2ccc(OC[C@@H]3CO[C@@](Cn4ccnc4)(c4ccc(Cl)cc4Cl)O3)cc2)CC1 (racemic) [Ketoconazole] to CCC(CC#N)OC(=O)N[C@@H](C)c1cccc(NC(=O)Nc2ccc(-c3cnco3)c(OC)c2)c1 (stereo in doubt) [AVN-944], the cell viability falls from 69.9% to -0.0869%.

Going from OC[C@H]1OC(O)C[C@@H](O)[C@@H]1O (stereo not given in full) [2-deoxyglucose] to CC(=O)N[C@@H](CS)C(=O)O [Acetylcysteine], the cell viability rises from 96.1% to 102%.

Compared with O=C(C(=O)c1ccc(Br)cc1)c1ccc(Br)cc1 [4,4'-Dibromobenzil], NS(=O)(=O)c1ccc(NC(=O)Cc2ccccc2)cc1 [4-(2-Phenylacetamido)Benzenesulfonamide] is lower in cell viability: 107% for the first, 102% for the second.

Going from NCc1ccc(S(N)(=O)=O)cc1 [4-Homosulfanilamide] to NCc1ccc(-c2cccnc2)s1 [(5-Pyrid-3-YLTHIEN-2-YL)METHYLAMINE], the cell viability falls from 102% to 96.5%.

Compared with Oc1ncc(F)c(O)n1 [5-fluorouracil], CCCCC/C=C\C/C=C\C/C=C\C/C=C\CCCC(=O)C(F)(F)F [Arachidonyl trifluoromethyl ketone] is higher in cell viability: 29.5% for the first, 77.8% for the second.

O=[As]O[As]=O (stereo not given) [Arsenic trioxide] gave a cell viability of 76.2%.

Test system: SHI-1
Assay: as above
Conditions: 1 nM; 72 h
Outline: as §1

CC(=O)N1CCN(c2ccc(OC[C@@H]3CO[C@@](Cn4ccnc4)(c4ccc(Cl)cc4Cl)O3)cc2)CC1 (racemic) [Ketoconazole] and CCC(CC#N)OC(=O)N[C@@H](C)c1cccc(NC(=O)Nc2ccc(-c3cnco3)c(OC)c2)c1 (stereo in doubt) [AVN-944] are the same in cell viability: 104% for the first, 104% for the second.

From the supplement of paper PMC8671470
